Reference: US20090221656A1, “Drug Combinations” (priority 2006, published 2009)

Key:
[1] = tested on: dopamine β-hydroxylase (DBH); assay: NA and DA tissue levels in heart and brain after administration of Compound 1; format: in vivo, mice and rats
Description: (§1) Compound 1 ((R)-5-(2-aminoethyl)-1-(6,8-difluorochroman-3-yl)-1,3-dihydroimidazole-2-thione hydrochloride) is a new chemical entity that integrates a series of potent inhibitors of dopamine β-hydroxylase (DBH) that were designed and synthesised incorporating modifications to the core structure of nepicastat. The aim was to provide new DBH inhibitors exerting minimal effects on dopamine (DA) and noradrenaline (NA) levels in the brain. Compound 1 is in a fact a potent and peripherally-selective DBH inhibitor. […] Compound 1 is thus presented as a candidate for clinical evaluation for the treatment of chronic heart failure and hypertension. Compound 1, together with a series of related compounds, is described in WO 2004/033447.

[2] = as above; format: in vivo, mice and rats; settings: mouse and rat, in vivo; mice and rats; after administration
Description: as §1

[3] = mice and rats, at Tmax (9 h after administration)

Q: Which results are given for `Cl.NCCc1c[nH]c(=S)n1[C@H]1COc2c(F)cc(F)cc2C1` [Compound 1, (R)-5-(2-aminoethyl)-1-(6,8-difluorochroman-3-yl)-1,3-dihydroimidazole-2-thione hydrochloride]?
A: DA tissue levels in brain ([1]; brain): failed to affect; NA tissue levels in brain ([1]; brain): failed to affect; NA levels in the left atrium [1, 3]: reduced NA levels in a dose-dependent manner; NA levels in the left ventricle [1, 3]: reduced NA levels in a dose-dependent manner; dose at which the maximal inhibitory effect on NA levels was attained ([1]; mice and rats, left atrium and left ventricle, 9 h after administration): 100 mg/kg; Tmax [2]: 9 h
